Starred links: 1 amine or outer side, 2 acyl side, 3 side chain; linkers in the order of their positions; H or OH if unused. Positions of bridges follow the written chain, without caps; N, C: chain ends. Non-standard residues stand in square brackets, D forms with d. Residues, ends and D or L forms follow the SMILES beside them. Triazole bridges read from a SMILES are 1,4-linked. X38 = NC(=O)[C@H](CSCc1cccc(C[*:1])c1)NC(=O)[C@@H]1CCCC1C(=O)[C@H](Cc1ccc(OCC2CCCCC2)cc1)N[*:2]; X25 = O=C([C@H](Cc1cccc(OCC=[*:3])c1)N[*:1])[*:2]; X26 = O=C([C@@H]1[C@@H](OCC=[*:3])CCN1[*:1])[*:2]; Phe(4-COOH) = N[C@@H](Cc1ccc(C(=O)O)cc1)C(=O)O; Trp(5-F) = N[C@@H](Cc1c[nH]c2ccc(F)cc12)C(=O)O; mXylylene(5-F) = Fc1cc(C[*:1])cc(C[*:2])c1; NMeW = CN[C@@H](Cc1c[nH]c2ccccc12)C(=O)O; X12 = O=C([C@H](CCCCC=[*:3])N[*:1])[*:2]; Lys(N3) = [N-]=[N+]=NCCCC[C@H](N)C(=O)O; X4 = O=C(CCSCc1cccc(CSCCN[*:1])c1)[*:2]; mXylylene = c1cc(C[*:1])cc(C[*:2])c1; NMeY = CN[C@@H](Cc1ccc(O)cc1)C(=O)O; αMeP = C[C@@]1(C(=O)O)CCCN1; dPra = C#CC[C@@H](N)C(=O)O; NMeA = CN[C@@H](C)C(=O)O; Orn = NCCC[C@H](N)C(=O)O; Mpa = O=C(O)CCS; Sar = CNCC(=O)O
Legend:
[1] = target: human PCSK9 / human LDLR EGFa domain interaction (Homo sapiens (Human), UniProt Q8NBP7); experiment: TR-FRET assay of inhibition of the PCSK9-LDLR protein-protein interaction; format: binding; settings: TR-FRET, 20 nM human PCSK9, 20 nM human LDLR EGFa domain, 2 hours room temperature; read-out: IC50
Sequence of human PCSK9 / human LDLR EGFa domain interaction (Q8NBP7 153-692): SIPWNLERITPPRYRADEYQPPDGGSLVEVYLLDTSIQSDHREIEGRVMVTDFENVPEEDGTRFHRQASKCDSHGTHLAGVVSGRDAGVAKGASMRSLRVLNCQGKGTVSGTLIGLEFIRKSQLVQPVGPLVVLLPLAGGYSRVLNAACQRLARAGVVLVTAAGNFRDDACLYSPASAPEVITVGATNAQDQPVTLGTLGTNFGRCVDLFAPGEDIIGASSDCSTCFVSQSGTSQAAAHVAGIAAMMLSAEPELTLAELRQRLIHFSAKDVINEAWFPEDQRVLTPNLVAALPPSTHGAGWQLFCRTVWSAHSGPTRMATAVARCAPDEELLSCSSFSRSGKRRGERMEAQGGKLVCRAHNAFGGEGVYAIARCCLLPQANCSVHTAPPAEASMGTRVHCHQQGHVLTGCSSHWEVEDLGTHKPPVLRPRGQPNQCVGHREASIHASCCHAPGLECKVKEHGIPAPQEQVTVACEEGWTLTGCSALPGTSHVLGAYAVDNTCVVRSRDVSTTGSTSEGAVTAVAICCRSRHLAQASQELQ
Sequence of human PCSK9 / human LDLR EGFa domain interaction (Q8NBP7 31-152 partner): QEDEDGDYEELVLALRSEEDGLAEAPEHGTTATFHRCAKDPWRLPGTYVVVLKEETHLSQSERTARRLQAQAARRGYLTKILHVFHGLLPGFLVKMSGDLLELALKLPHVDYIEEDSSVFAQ
Summary of the method: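 Compounds in dose-response are mixed with 20 nM human PCSK9 (avitag-biotinylated) and 20 nM his-tagged LDLR EGFa domain, plus 5 nM each streptavidin-Ulight and Eu-anti-6×His. After 2 h at room temperature in HEPES/NaCl/CaCl2 buffer with BSA and P20, TR-FRET is read and IC50 fitted (4-parameter).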

PCSK9 = PCSK9 (Homo sapiens (Human), UniProt Q8NBP7); experiment: PCSK9 Alexa FRET Standard assay (displacement of AlexaFluor647 tagged cyclic peptide Reagent A); format: binding; settings: PCSK9 Alexa FRET Standard assay, 0.5 nM PCSK9, 20 nM AF cyclic peptide Reagent A; read-out: IC50
Sequence of PCSK9 (Q8NBP7 153-692): as the sequence (Q8NBP7 153-692) above
Summary of the method: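 TR-FRET displacement: 0.5 nM biotinylated PCSK9 with 1.25 nM Strep-Eu and 20 nM AlexaFluor-tagged cyclic peptide (final) in 50 mM HEPES pH 7.4, 0.15 M NaCl, 5 mM CaCl2, 0.01% BSA, 0.01% P20, ≥2 h at room temperature. IC50 from sigmoidal fit, converted to Ki via peptide KD; falling Eu counts flagged false positives.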

| SMILES | IC50 [1] | IC50 (PCSK9) |
| --- | --- | --- |
| COc1ccc(C[C@@H]2NC(=O)[C@H]([C@@H](C)O)NC(=O)[C@@H]3[C@@H]4CCN3C(=O)[C@H](Cc3c[nH]c5ccc(F)cc35)NC(=O)[C@H](Cc3cccc(c3)OC/C=C/CO4)NC(=O)[C@@H](C)NC(=O)[C@H](C)NC(=O)CCSCc3cccc(c3)CSCCNC(=O)[C@]3(C)CCCN3C2=O)cc1 [Compound 516] (cyclo(A[dA][X25][Trp(5-F)][X26]TY(Me)[αMeP][X4]); staple (E) 3-5) | 0.1 to 100 nM | 0.11 to 100 nM |
| COc1ccc(C[C@@H]2NC(=O)[C@@H]3CCCCC(=O)N[C@H]4C[C@@H](C(=O)N3)N(C4)C(=O)[C@H](Cc3c[nH]c4ccc(F)cc34)NC(=O)[C@H](Cc3c[nH]c4ccc(F)cc34)NC(=O)[C@@H](C)NC(=O)[C@H](CCCN)NC(=O)CCSCc3cccc(c3)CCSCNC(=O)[C@]3(C)CCCN3C2=O)cc1 [Compound 521] | 0.1 to 100 nM | 0.11 to 100 nM |
| C[C@H]1NC(=O)[C@H](CCCCN)NC(=O)CCSCc2cccc(c2)CSC[C@@H](C(N)=O)NC(=O)[C@]2(C)CCCN2C(=O)[C@H](Cc2ccc(O)cc2)NC(=O)[C@H]([C@@H](C)O)NC(=O)[C@@H]2CCCN2C(=O)[C@H](Cc2c[nH]c3ccc(F)cc23)NC(=O)[C@H](Cc2c[nH]c3ccc(F)cc23)NC1=O [Compound 044] ([Mpa]K[dA][Trp(5-F)][Trp(5-F)]PTY[αMeP]C-NH2; linker 1-10 via mXylylene) | 100 to 1000 nM | 100 to 1000 nM |
| COc1ccc(C[C@@H]2NC(=O)[C@H]([C@@H](C)O)NC(=O)[C@@H]3CCCC/C=C\CCCC[C@H](NC(=O)[C@@H](C)NC(=O)[C@H](C)NC(=O)CCSCc4cccc(c4)CSCCNC(=O)[C@]4(C)CCCN4C2=O)C(=O)N[C@@H](Cc2c[nH]c4ccc(F)cc24)C(=O)N3)cc1 [Compound 495] (cyclo(A[dA][X12][Trp(5-F)][X12]TY(Me)[αMeP][X4]); staple (Z) 3-5) | 100 to 1000 nM | 0.11 to 100 nM |
| COc1ccc(C[C@@H]2NC(=O)[C@H](Cc3cnc[nH]3)NC(=O)[C@H](CC(=O)O)NC(=O)[C@H](Cc3c[nH]c4ccc(F)cc34)NC(=O)[C@H](Cc3c[nH]c4ccc(F)cc34)NC(=O)[C@@H](C)NC(=O)[C@H](CCCCN)NC(=O)CCSCc3cc(F)cc(c3)CSC[C@@H](C(N)=O)NC(=O)[C@]3(C)CCCN3C2=O)cc1 [Compound 338] ([Mpa]K[dA][Trp(5-F)][Trp(5-F)]DHY(Me)[αMeP]C-NH2; linker 1-10 via mXylylene(5-F)) | 1000 to 12100 nM | 1000 to 12100 nM |
| CC(=O)N[C@@H]1Cc2cn(nn2)CCCC[C@@H](C(N)=O)NC(=O)[C@]2(C)CCCN2C(=O)[C@H](Cc2ccc(O)cc2)NC(=O)[C@H](Cc2cnc[nH]2)NC(=O)[C@H](CC(=O)O)NC(=O)[C@H](Cc2c[nH]c3ccc(F)cc23)NC(=O)[C@H](Cc2c[nH]c3ccc(F)cc23)NC(=O)CNC1=O [Compound 336] (Ac-[dPra]G[Trp(5-F)][Trp(5-F)]DHY[αMeP][Lys(N3)]-NH2; triazole 1-9) | 0.1 to 100 nM | 100 to 1000 nM |
| COc1ccc(C[C@@H]2NC(=O)[C@@H]3CCCC(=O)N[C@H]4C[C@@H](C(=O)N3)N(C4)C(=O)[C@H](Cc3c[nH]c4ccc(F)cc34)NC(=O)[C@H](Cc3c[nH]c4ccc(F)cc34)NC(=O)[C@@H](C)NC(=O)[C@H](C)NCCSCc3ccc(cc3)CSCCNC(=O)[C@]3(C)CCCN3C2=O)cc1 [Compound 519] | 1000 to 12100 nM | 1000 to 12100 nM |
| NCCC[C@@H]1NC(=O)CCSCc2cccc(c2)CSC[C@@H](C(N)=O)NC(=O)[C@@H]2CCCC2C(=O)[C@H](Cc2ccc(OCC3CCCCC3)cc2)NC(=O)[C@H](Cc2cnc[nH]2)NC(=O)[C@H](CC(=O)O)NC(=O)[C@H](Cc2c[nH]c3ccc(F)cc23)NC(=O)[C@H](Cc2c[nH]c3ccc(F)cc23)NC(=O)CNC1=O (stereo partly shown) [Compound 340] ([Mpa][Orn]G[Trp(5-F)][Trp(5-F)]DH; linker 1-C via X38) | 0.1 to 100 nM | 100 to 1000 nM |
| CC(=O)N[C@@H]1CCCCNC(=O)c2ccc(cc2)C[C@@H](C(N)=O)NC(=O)[C@]2(C)CCCN2C(=O)[C@H](Cc2ccc(O)cc2)NC(=O)[C@H](Cc2cnc[nH]2)NC(=O)[C@H](CC(=O)O)NC(=O)[C@H](Cc2c[nH]c3ccc(F)cc23)NC(=O)[C@H](Cc2c[nH]c3ccc(F)cc23)NC(=O)CNC1=O [Compound 255] (Ac-[dK]G[Trp(5-F)][Trp(5-F)]DHY[αMeP][Phe(4-COOH)]-NH2; lactam 1-9) | 100 to 1000 nM | 100 to 1000 nM |
| C[C@H]1C(=O)N(C)[C@@H](Cc2ccc(O)cc2)C(=O)N2CCC[C@H]2C(=O)N[C@H](C(N)=O)CSCc2cccc(c2)CSCCC(=O)N[C@@H](CCCCN)C(=O)N(C)CC(=O)N(C)[C@@H](Cc2c[nH]c3ccccc23)C(=O)N[C@@H](Cc2c[nH]c3ccccc23)C(=O)N[C@@H](CC(=O)O)C(=O)N1C [Compound 015] ([Mpa]K[Sar][NMeW]WD[NMeA][NMeY]PC-NH2; linker 1-10 via mXylylene) | 1000 to 12100 nM | – |

Source: US11530244B2, “Cyclic polypeptides for PCSK9 inhibition” (priority 2018, dated 2022)
